Data published in PubChem BioAssay (NCI).
Where “and” joins values, the source holds several entries; their conditions need not be identical. Identical values can stand only once.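 Five concentrations, 48 hours, 96-well plates. Abbreviation: GI50, concentration required for 50% inhibition of growth. TGI denotes the concentration required for complete inhibition of growth.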

The compounds below were run on A498 renal (assay: inhibition of tumour cell growth, NCI panel, 48 h).

SMILES | TGI | GI50
Cc1nc2ccccc2nc1CC(=O)C(=O)Nc1ccc(Cl)cc1Cl | > 100 µM | –
O=C1NC2=C(CCCCC/C2=N\O)C12CCCCCC2 | > 100 µM | –
N#C/C(=C\c1cc(OCc2ccccc2)c(OCc2ccccc2)cn1)C(N)=O | > 100 µM | –
N#CC(C(=O)C(=O)Nc1c(Cl)cccc1Cl)c1ccccc1 (centres undefined) | > 100 µM | > 100 µM
O=C1NC(=O)c2c1n(Cc1ccccc1)c(=O)n2Cc1ccccc1 | 77.9 µM | –
Cc1nc(N)nc(CCC(=O)Nc2cccc(C(F)(F)F)c2)c1-c1ccc(Cl)cc1 | > 100 µM | –
COc1cc([C@@H]2c3cc4c(cc3[C@@H](NC(=O)c3ccc(C#N)cc3)C3COC(=O)[C@@H]32)OCO4)cc(OC)c1O (some centres undefined) | 3.79 µM | –
COc1cc2oc(-c3ccc(O)cc3)cc(=O)c2c(O)c1C1OC(CO)C(O)C(O)C1O (centres undefined) | > 100 µM | –
Cc1nn(-c2ccc(Cl)cc2)c2ncnc(N/N=C/c3ccccc3O)c12 | 70.1 µM and 23.5 µM | 12.3 µM and 3.23 µM
COc1ccc(OC)c(/C=C/c2nc(=S)n(-c3ccc(Cl)cc3)[nH]2)c1 | > 100 µM | 6.66 µM
COc1ccc2c(c1)C(=O)c1c-2c(Nc2ccccc2OC)nc2ccccc12 | > 100 µM | > 100 µM
COc1ccc2c(N)ncc(C#Cc3cc(C(=O)Nc4ccc(CN5CCN(C)CC5)c(C(F)(F)F)c4)cnc3C)c2c1 | 3 µM | 0.842 µM
COc1cc2c(N3CCN(C(=O)Nc4ccc(OC(C)C)cc4)CC3)ncnc2cc1OCCCN1CCCCC1 | 40.7 µM | 15 µM
c1ccc(-c2[nH]ncc2-c2ccnc(-c3ccc(OCCn4ccnc4)cc3)c2)nc1 | > 25 µM | > 25 µM
O=C1c2cccc(Oc3ccccc3)c2C(=O)c2cccc(Oc3ccccc3)c21 | > 100 µM | > 100 µM
O=C(OCc1ccc2c(Br)cc(Br)c(O)c2n1)c1cc2ccccc2[nH]1 | 2.96 µM | 1.56 µM
CC(C)(CO)CNC(=O)c1ccc2[nH]c(O)c(N=Nc3ccc(S(N)(=O)=O)cc3)c2c1 | > 25 µM | > 25 µM
Cc1cc(O)c2c(c1)C(=O)C=CC2=O | 40.7 µM and 75.2 µM | –
CC1(C)N=C(N)N=C(N)N1c1ccc(CCC(=O)Nc2ccc(S(=O)(=O)F)cc2)cc1 | > 100 µM | 5.99 µM
N#CC1(c2ccc(NC(=O)c3cccnc3NCc3ccncc3)cc2)CCCC1 | 60.9 µM | 10.2 µM
CCN1C(=S)N(CC)C2C1NC(=S)N2/N=C/C=C/c1ccccc1OC (centres undefined) | 0.715 µM | 0.0831 µM
Cn1nccc1Nc1nccc(-c2ccn([C@H](CO)c3ccc(Cl)c(F)c3)c(=O)c2)n1 | 15.3 µM | 1.07 µM
CCOC(=O)c1nc(C)oc1C(F)(F)F | > 100 µM | –
O=C(Nc1cccc(-n2cc(-c3ccncc3)c(-c3cc(O)cc(Cl)c3)n2)c1)c1ccc(N2CCOCC2)c(C(F)(F)F)c1 | 73.2 µM | 19.4 µM
N#CC1c2ccccc2C=CN1C(=O)CCCl (centres undefined) | 25.8 µM | 11.7 µM
O=C1NC(=N[C@@H](CO)c2ccccc2)S/C1=C\c1ccc2ncccc2c1 | > 21.9 µM | 4.29 µM
O=C1/C(=C/c2ccc(Cl)c(Cl)c2)CN(C(=O)CCN2CCC(=NO)CC2)C/C1=C\c1ccc(Cl)c(Cl)c1 | 2.89 µM | 1.44 µM
CCNc1nc(O)c(/C=C2\C=Nc3ncccc32)s1 | 6.15 µM | 2.12 µM
O=C(/C=C/C12c3ccccc3C(c3ccccc31)C1C(=O)NC(=O)C12)c1ccccn1 (centres undefined) | 3.15 µM | 1.66 µM
O=C1CC(c2ccccc2)Oc2ccccc21 (centres undefined) | 94 µM | –

The compounds below were run on BT-549 breast (assay: inhibition of tumour cell growth, NCI panel, 48 h).

SMILES | GI50 | TGI
Cc1nn(-c2ccc(Cl)cc2)c2ncnc(N/N=C/c3ccccc3O)c12 | 1.31 µM and 0.57 µM | 57.9 µM and > 100 µM
COc1ccc(OC)c(/C=C/c2nc(=S)n(-c3ccc(Cl)cc3)[nH]2)c1 | 9.38 µM | > 100 µM
COc1ccc2c(c1)C(=O)c1c-2c(Nc2ccccc2OC)nc2ccccc12 | > 100 µM | > 100 µM
COc1ccc2c(N)ncc(C#Cc3cc(C(=O)Nc4ccc(CN5CCN(C)CC5)c(C(F)(F)F)c4)cnc3C)c2c1 | 6.02 µM | 14.9 µM
COc1cc2c(N3CCN(C(=O)Nc4ccc(OC(C)C)cc4)CC3)ncnc2cc1OCCCN1CCCCC1 | 13.4 µM | 29.3 µM
c1ccc(-c2[nH]ncc2-c2ccnc(-c3ccc(OCCn4ccnc4)cc3)c2)nc1 | 22.5 µM | > 25 µM
O=C1c2cccc(Oc3ccccc3)c2C(=O)c2cccc(Oc3ccccc3)c21 | 22.9 µM | > 100 µM
O=C(OCc1ccc2c(Br)cc(Br)c(O)c2n1)c1cc2ccccc2[nH]1 | 0.706 µM | 2.06 µM
CC(C)(CO)CNC(=O)c1ccc2[nH]c(O)c(N=Nc3ccc(S(N)(=O)=O)cc3)c2c1 | > 25 µM | > 25 µM
Cc1cc(O)c2c(c1)C(=O)C=CC2=O | 15.5 µM and 6.9 µM | 30.3 µM and 21 µM
CC1(C)N=C(N)N=C(N)N1c1ccc(CCC(=O)Nc2ccc(S(=O)(=O)F)cc2)cc1 | 12.6 µM | > 100 µM
N#CC1(c2ccc(NC(=O)c3cccnc3NCc3ccncc3)cc2)CCCC1 | 10.2 µM | 61 µM
CCN1C(=S)N(CC)C2C1NC(=S)N2/N=C/C=C/c1ccccc1OC (centres undefined) | 0.899 µM | 8.56 µM
Cn1nccc1Nc1nccc(-c2ccn([C@H](CO)c3ccc(Cl)c(F)c3)c(=O)c2)n1 | 19.7 µM | 61 µM
O=C(Nc1cccc(-n2cc(-c3ccncc3)c(-c3cc(O)cc(Cl)c3)n2)c1)c1ccc(N2CCOCC2)c(C(F)(F)F)c1 | 4.21 µM | > 100 µM
N#CC1c2ccccc2C=CN1C(=O)CCCl (centres undefined) | 16.9 µM | 30.7 µM
O=C1NC(=N[C@@H](CO)c2ccccc2)S/C1=C\c1ccc2ncccc2c1 | 4.07 µM | > 18.5 µM
O=C1/C(=C/c2ccc(Cl)c(Cl)c2)CN(C(=O)CCN2CCC(=NO)CC2)C/C1=C\c1ccc(Cl)c(Cl)c1 | 0.829 µM | 1.84 µM
CCNc1nc(O)c(/C=C2\C=Nc3ncccc32)s1 | 1.66 µM | 5.17 µM
O=C(/C=C/C12c3ccccc3C(c3ccccc31)C1C(=O)NC(=O)C12)c1ccccn1 (centres undefined) | 1.82 µM | 3.69 µM
O=C1CC(c2ccccc2)Oc2ccccc21 (centres undefined) | – | 42.1 µM

The compounds below were run on DMS 273 small cell lung (assay: inhibition of tumour cell growth, NCI panel, 48 h).

SMILES | TGI [µM] | GI50 [µM]
Cc1nc2ccccc2nc1CC(=O)C(=O)Nc1ccc(Cl)cc1Cl | > 100 | –
COc1cc(Nc2cnc3ccc(C(F)(F)F)cc3n2)cc(OC)c1OC | > 100 | –
O=C1NC2=C(CCCCC/C2=N\O)C12CCCCCC2 | > 100 | –
N#CC(C(=O)C(=O)Nc1c(Cl)cccc1Cl)c1ccccc1 (centres undefined) | > 100 | > 100
O=C1NC(=O)c2c1n(Cc1ccccc1)c(=O)n2Cc1ccccc1 | > 100 | –
Cc1nc(N)nc(CCC(=O)Nc2cccc(C(F)(F)F)c2)c1-c1ccc(Cl)cc1 | > 100 | –
COc1cc([C@@H]2c3cc4c(cc3[C@@H](NC(=O)c3ccc(C#N)cc3)C3COC(=O)[C@@H]32)OCO4)cc(OC)c1O (some centres undefined) | 10.3 | –
COc1cc2oc(-c3ccc(O)cc3)cc(=O)c2c(O)c1C1OC(CO)C(O)C(O)C1O (centres undefined) | > 100 | –
COc1nc2c(c(O)c(C)c(=O)n2OC2OCC(OC(C)=O)C(OC(C)=O)C2OC(C)=O)c(=O)n1C (centres undefined) | > 100 | –

These compounds were tested on KM20L2 colon (assay: inhibition of tumour cell growth, NCI panel, 48 h).

SMILES | TGI [µM]
Cc1nc2ccccc2nc1CC(=O)C(=O)Nc1ccc(Cl)cc1Cl | > 100
COc1cc(Nc2cnc3ccc(C(F)(F)F)cc3n2)cc(OC)c1OC | 22.5
CCc1cccc(C)c1NC(=O)CCc1nc(=S)[nH][nH]1 | > 100
N#C/C(=C\c1cc(OCc2ccccc2)c(OCc2ccccc2)cn1)C(N)=O | > 100
O=C1NC(=O)c2c1n(Cc1ccccc1)c(=O)n2Cc1ccccc1 | > 100
Cc1nc(N)nc(CCC(=O)Nc2cccc(C(F)(F)F)c2)c1-c1ccc(Cl)cc1 | > 100
COc1cc([C@@H]2c3cc4c(cc3[C@@H](NC(=O)c3ccc(C#N)cc3)C3COC(=O)[C@@H]32)OCO4)cc(OC)c1O (some centres undefined) | 4.51
COc1cc2oc(-c3ccc(O)cc3)cc(=O)c2c(O)c1C1OC(CO)C(O)C(O)C1O (centres undefined) | > 100
